Source: US5985844A, “Homoerythromycin A derivatives modified at the 4"-and 8A-positions” (Merck & Co., Inc., priority 1992, dated 1999)
≈ marks a conversion by molar mass, not a printed value. Like-named read-outs stand apart in the source and are kept apart here.

Key:
Test in all cases: liquid turbidimetric microtiter MIC, broth media
Assay type in all cases: cell-based
[1] = test system: Staphylococcus aureus MB 2865
Text: (§1) The antibacterial activities of the compounds of Examples 8 and 10 against a panel of aerobic Gram positive and negative bacteria is shown in Table I. Similarly, the antibacterial activities of the compounds of Examples 89, 94, 96, and 97 are presented in Table II. The assay employs a liquid turbidimetric microtiter method for the determination of the minimum inhibitory concentration (MIC) in broth media. […] The MIC is generally not an absolute value but rather a concentration range that falls within a two-fold dilution limit. Generally twelve two-fold dilutions of the test compound are employed with the initial concentration set at 128 mcg/ml.

[2] = test system: Haemophilus influenzae AT 43163
Text: as §1

[3] = test system: Streptococcus pyogenes MB 2874
Text: as §1

Escherichia coli MB 2884 = test system: Escherichia coli MB 2884
Text: as §1

[4] = test system: Enterobacter cloacae CL 4298
Text: as §1

[5] = test system: Haemophilus influenzae MB 5363
Text: as §1

[6] = test system: Streptococcus pneumoniae CL 2883
Text: as §1

[7] = test system: Staphylococcus epidermidis MB 5414
Text: as §1

[8] = test system: Enterococcus faecalis MB 5407
Text: as §1

[9] = test system: Klebsiella pneumoniae MB 4005
Text: as §1

[10] = test system: Streptococcus pyogenes MB 54061; conditions: MB54061
Text: as §1

[11] = test system: Staphylococcus haemolyticus MB 5412; conditions: MB5412
Text: as §1

[12] = test system: Streptococcus viridans CL 2943; conditions: CL2943
Text: as §1

Escherichia coli MB 4926 = conditions: MB4926
Text: as §1

[13] = test system: Enterococcus faecium MB 5416; conditions: MB5416
Text: as §1

[14] = test system: Pseudomonas stutzeri MB 1231; conditions: Stutzerimonas stutzeri, MB1231
Text: as §1

[15] = test system: Streptococcus agalactiae CL 1343; conditions: CL1343
Text: as §1

Compound | MIC [1] [µg/mL] | MIC [2] [µg/mL] | MIC [3] [µg/mL] | MIC (Escherichia coli MB 2884) [µg/mL] | MIC [4] [µg/mL] | MIC [5] [µg/mL] | MIC [6] [µg/mL] | MIC [7] [µg/mL] | MIC [8] [µg/mL] | MIC [9] [µg/mL] | MIC (Escherichia coli MB 2884; MB2884, read-out: MIC) [µg/mL] | MIC ([1]; MB2865, read-out: MIC) [µg/mL] | MIC ([3]; MB2874, read-out: MIC) [µg/mL] | MIC ([6]; CL2883, read-out: MIC) [µg/mL] | MIC ([7]; MB5414, read-out: MIC) [µg/mL] | MIC ([8]; MB5407, read-out: MIC) [µg/mL] | MIC ([9]; MB4005, read-out: MIC) [µg/mL] | other results
4"-Deoxy-4"-amino-9-deoxo-8a-aza-8a-methyl-8a-homoerythromycin A [Example 94] | 1 | 0.25 | ≤ 0.06 | 0.12 | ≤ 0.06 | 0.5 | ≤ 0.06 | 0.5 | 4 | 0.12 | – | – | – | – | – | – | – | –
CC[C@H]1OC(=O)[C@H](C)[C@@H](O[C@H]2C[C@@](C)(OC)[C@@H](O)[C@H](C)O2)[C@H](C)[C@@H](O[C@@H]2O[C@H](C)C[C@H](N(C)C)[C@H]2O)[C@](C)(O)C[C@@H](C)C(=O)[C@H](C)[C@@H](O)[C@]1(C)O [Erythromycin A, erythromycin A] | 0.12 (≈ 0.164 µM) | 2 (≈ 2.73 µM) | ≤ 0.06 | – | 16 (≈ 21.8 µM) | 2 (≈ 2.73 µM) | ≤ 0.06 | 0.12 (≈ 0.164 µM) | 1 (≈ 1.36 µM) | 32 (≈ 43.6 µM) | 16 (≈ 21.8 µM) | – | – | – | – | – | – | –
CC[C@H]1OC(=O)[C@H](C)[C@@H](O[C@H]2C[C@@](C)(OC)[C@@H](O)[C@H](C)O2)[C@H](C)[C@@H](O[C@@H]2O[C@H](C)C[C@H](N(C)C)[C@H]2O)[C@](C)(O)C[C@@H](C)NC[C@H](C)[C@@H](O)[C@]1(C)O [Example 8, 9-Deoxo-8a-aza-8a-homoerythromycin A] | – | – | – | – | – | – | – | – | – | – | 4 (≈ 5.44 µM) | 0.5 (≈ 0.68 µM) | ≤ 0.06 | ≤ 0.06 | 1 (≈ 1.36 µM) | 8 (≈ 10.9 µM) | 8 (≈ 10.9 µM) | MIC [10]: 128 µg/mL (≈ 174 µM); MIC [11]: 0.5 µg/mL (≈ 0.68 µM); MIC [12]: 8 µg/mL (≈ 10.9 µM); MIC (Escherichia coli MB 4926): 2 µg/mL (≈ 2.72 µM); MIC [13]: 0.25 µg/mL (≈ 0.34 µM); MIC [14]: ≤ 0.06 µg/mL; MIC [15]: ≤ 0.06 µg/mL
CC[C@H]1OC(=O)[C@H](C)[C@@H](O[C@H]2C[C@@](C)(OC)[C@@H](O)[C@H](C)O2)[C@H](C)[C@@H](O[C@@H]2O[C@H](C)C[C@H](N(C)C)[C@H]2O)[C@](C)(O)C[C@@H](C)N(C)C[C@H](C)[C@@H](O)[C@]1(C)O [Example 10, 9-Deoxo-8a-aza-8a-methyl-8a-homoerythromycin A] | – | – | – | – | – | – | – | – | – | – | 1 (≈ 1.34 µM) | 0.5 (≈ 0.668 µM) | ≤ 0.06 | ≤ 0.06 | 1 (≈ 1.34 µM) | 4 (≈ 5.34 µM) | 2 (≈ 2.67 µM) | MIC [10]: 128 µg/mL (≈ 171 µM); MIC [11]: 0.5 µg/mL (≈ 0.668 µM); MIC [12]: 1 µg/mL (≈ 1.34 µM); MIC (Escherichia coli MB 4926): 0.06 µg/mL (≈ 0.0801 µM); MIC [13]: 0.25 µg/mL (≈ 0.334 µM); MIC [14]: ≤ 0.06 µg/mL; MIC [15]: ≤ 0.06 µg/mL
CC[C@H]1OC(=O)[C@H](C)[C@@H](O[C@H]2C[C@@](C)(OC)[C@H](O)[C@H](C)O2)[C@H](C)[C@@H](O[C@@H]2O[C@H](C)C[C@H](N(C)C)[C@H]2O)[C@](C)(O)C[C@@H](C)N(C)C[C@H](C)[C@@H](O)[C@]1(C)O [Example 89, 4"-epi-9-deoxo-8a-aza-8a-methyl-8a-homoerythromycin A] | – | – | – | – | – | – | – | – | – | – | 1 (≈ 1.34 µM) | 0.5 (≈ 0.668 µM) | ≤ 0.06 | ≤ 0.06 | 0.25 (≈ 0.334 µM) | 1 (≈ 1.34 µM) | 1 (≈ 1.34 µM) | MIC ([2]; AT43163, read-out: MIC): 0.5 µg/mL (≈ 0.668 µM); MIC ([4]; CL4298, read-out: MIC): 0.5 µg/mL (≈ 0.668 µM); MIC ([5]; MB5363, read-out: MIC): 0.5 µg/mL (≈ 0.668 µM)
CC[C@H]1OC(=O)[C@H](C)[C@@H](O[C@H]2C[C@@](C)(OC)[C@@H](N)[C@H](C)O2)[C@H](C)[C@@H](O[C@@H]2O[C@H](C)C[C@H](N(C)C)[C@H]2O)[C@](C)(O)C[C@@H](C)N(C)C[C@H](C)[C@@H](O)[C@]1(C)O [Example 96, 4"-Deoxy-4"-(S)-amino-9-deoxo-8a-aza-8a-methyl-8a-homoerythromycin A] | 1 (≈ 1.34 µM) | 0.25 (≈ 0.334 µM) | ≤ 0.06 | 0.12 (≈ 0.16 µM) | ≤ 0.06 | 0.25 (≈ 0.334 µM) | ≤ 0.06 | 0.51 (≈ 0.682 µM) | 2 (≈ 2.67 µM) | 0.12 (≈ 0.16 µM) | – | – | – | – | – | – | – | –
CC[C@H]1OC(=O)[C@H](C)[C@@H](O[C@H]2C[C@@](C)(OC)[C@H](N)[C@H](C)O2)[C@H](C)[C@@H](O[C@@H]2O[C@H](C)C[C@H](N(C)C)[C@H]2O)[C@](C)(O)C[C@@H](C)N(C)C[C@H](C)[C@@H](O)[C@]1(C)O [Example 97, 4"-Deoxy-4"-(R)-amino-9-deoxo-8a-aza-8a-methyl-8a-homoerythromycin A] | 1 (≈ 1.34 µM) | 0.25 (≈ 0.334 µM) | ≤ 0.06 | 0.25 (≈ 0.334 µM) | 0.12 (≈ 0.16 µM) | 0.5 (≈ 0.668 µM) | ≤ 0.06 | 0.5 (≈ 0.668 µM) | 2 (≈ 2.67 µM) | 0.25 (≈ 0.334 µM) | – | – | – | – | – | – | – | –
